Experimental data: US20130085260A1, “METHOD FOR THE IDENTIFICATION OF T CELL EPITOPES” (CENTRE H[…] L'UNIVERSITE DE MONTREAL, priority 2010, published 2013)

Key:
Format in all cases: cell-based, human
M1-CD4 T cell clone = assay: IFN-γ secretion (ELISA) by M1-CD4 T cell clone co-cultured with peptide-pulsed EBV-B cells; conditions: EBV-B cells pulsed with synthetic peptide; HLA-DR-restricted
Procedure: Antigen-specific bulk T cells from peripheral blood mononuclear cells stimulated with autologous CD4O-B cells electroporated with M1 or NP DNA plasmids were cloned by limiting dilution and cultured as previously described.^8
Synthetic peptides were added to EBV-B cells at a final concentration of 1 to 10 μg/mL for MHC class 110-mer peptides (50 μg/mL for longer peptides) (Table 2) for 3 hours at 37° C. 5% CO2, and then washed once to remove unbound peptides. T-cell clones were washed and cultured for 4 hours in Iscove's complete medium supplemented with 120 IU/ml of interleukin-2 (IL-2). T cell clones' reactivity to MHC-restricted epitopes was tested on the basis of interferon-γ cytokine secretion as described previously.^7

NP-CD8 T cell clone = conditions: EBV-B cells pulsed with synthetic peptide, 1 to 10 μg/mL for 10-mer, 50 μg/mL for longer peptides, 3 hours
[1] = system: M1^58-66-specific T cells (M1-CD8); conditions: EBV-B cells pulsed with peptide; negative specificity control

Row | Sequence | recognition by M1-CD4 T cell clone (IFN-γ production) (M1-CD4 T cell clone) | recognition by NP-CD8 T cell clone (IFN-γ production) (NP-CD8 T cell clone) | further results
1 | YRKLKREITF | specifically recognized |  | 
2 | NGNGDPNNMDKAVKL [Peptide b] | weakly recognized |  | 
3 | LSAFDERRNKYLEEHPSAG [Peptide 1-6] |  | well recognized | 
4 | AFDERRNKYL [Peptide 2] |  | more weakly but nevertheless specifically recognized | 
5 | IMDQVPFSV [gp100^209-218 peptide] |  |  | recognition by M1^58-66-specific T cells (IFN-γ production) [1]: did not recognize
